Molecules are shown by their SMILES.

Common to all, as to type: biochemical
One test concerns the target GSK-3β (Homo sapiens, UniProt P49841). Description: ADP-Glo kinase assay, GSK-3β inhibition. On the set-up: purchased Promega. Particulars: for IC50: mean ± SEM, ATP 25 µM; for inhibition at 10 µM: mean ± SD, read-out: % inh. at 10 µM GSK-3β. From the text:
(§1) We evaluated the inhibitory activity of the final compounds against GSK-3β, IKK-β, and ROCK-1 kinases using the commercially available ADP-Glo™ kinase assay. The method was based on the measurement of luminescence that correlates with kinase activity. […] The latter are inhibitors of the kinases of interest and were integral to the design of our studies.
(§2) Promega’s Kinase Enzyme Systems (Promega; Madison, WI, USA) were used to determine the activities of the tested compounds against the human recombinant kinases GSK-3β, IKK- β, and ROCK-1. The assays were performed according to the provided manufacturer’s instruction, based on the optimized conditions of the enzymatic reactions, using the low-volume, white polystyrene, 384-well plates. The ADP-Glo™ Assay (Promega; Madison, WI, USA) was used for bioluminescent detection of the kinase activity. Stock solutions of the tested compounds in DMSO (1mM) were diluted with the Kinase Assay Buffer before use (40 mM Tris, pH 7.5, enriched with 50 µM dithiothreitol; DTT), giving the final desired concentrations. The kinase enzymes, substrates, and ATP solutions were also diluted with the assay buffer prior to use. The GSK-3β, IKK-β, and ROCK-1 substrates were derived from human muscle glycogen synthase 1, human IkBA, and human 40S ribosomal protein S6, respectively. The assay procedure was as follows: At first, the appropriate kinase enzyme (GSK-3β: 10 ng per well; IKK-β: 45 ng per well; ROCK-1: 24 ng per well) was incubated with the tested sample (10 µM in well) for 5 min. The DMSO solution (1% in well) was used in the blank samples instead of the tested inhibitors. After the incubation period, ATP (25 µM per well in the case of GSK-3β and IKK-β kinases; 5 µM per well in the case of ROCK-1 kinase) and an appropriate enzyme substrate (0.2 µg/µL in well) were added to start the enzymatic reaction. The reaction mixture was kept at room temperature for 1 h; then, the ADP-Glo™ reagent was added, to terminate the kinase reaction and deplete any remaining ATP. After 40 min, a second reagent (Kinase Detection Reagent) was applied to convert the obtained ADP to ATP and to generate light from the newly synthesized ATP using a luciferase/luciferin reaction. The mixture was incubated for another 30 min at room temperature before the luminescence was measured. The calculations of the percent of kinases’ inhibition by tested compounds were based on the equation 100 − (S/B) × 100; S and B are the enzyme activities with and without the tested sample, respectively. […] Each compound was evaluated in two independent experiments, with every data point collected in duplicate.
On the technique in general: ADP-Glo first removes unused ATP, then detects ADP through luciferase.

For a further test, the target named is T1, IKK-β (Homo sapiens, UniProt O14920).
T1 construct: purchased Promega
T1 sequence (O14920 1-756): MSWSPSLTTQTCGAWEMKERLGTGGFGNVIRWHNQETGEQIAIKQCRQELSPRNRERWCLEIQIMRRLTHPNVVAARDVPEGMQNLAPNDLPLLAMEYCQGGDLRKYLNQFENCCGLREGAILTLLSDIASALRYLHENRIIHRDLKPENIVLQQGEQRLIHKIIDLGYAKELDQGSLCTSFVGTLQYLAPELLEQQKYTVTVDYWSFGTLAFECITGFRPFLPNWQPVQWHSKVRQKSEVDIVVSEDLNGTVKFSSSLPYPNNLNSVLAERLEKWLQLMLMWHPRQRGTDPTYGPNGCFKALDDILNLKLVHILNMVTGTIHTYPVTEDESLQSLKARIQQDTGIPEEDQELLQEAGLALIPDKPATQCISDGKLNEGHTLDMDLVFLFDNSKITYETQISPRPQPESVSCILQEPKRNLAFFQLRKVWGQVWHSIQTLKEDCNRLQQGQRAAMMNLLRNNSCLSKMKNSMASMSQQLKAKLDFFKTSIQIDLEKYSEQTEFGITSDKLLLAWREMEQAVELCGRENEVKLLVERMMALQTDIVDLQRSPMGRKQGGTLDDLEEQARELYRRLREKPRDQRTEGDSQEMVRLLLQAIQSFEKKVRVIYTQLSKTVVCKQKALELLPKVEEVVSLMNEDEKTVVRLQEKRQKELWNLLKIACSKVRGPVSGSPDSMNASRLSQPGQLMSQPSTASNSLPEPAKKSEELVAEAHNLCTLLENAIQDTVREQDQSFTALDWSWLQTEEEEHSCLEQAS
Description: ADP-Glo kinase assay, IKK-β inhibition. Particulars: for IC50: mean ± SEM, ATP 25 µM; for inhibition at 10 µM: mean ± SD, read-out: % inh. at 10 µM IKK-β.
Text: as §1, §2

A further test concerns the target T2, ROCK-1 (Homo sapiens, UniProt Q13464).
T2 construct: purchased Promega
Description: ADP-Glo kinase assay, ROCK-1 inhibition. The note with it: for inhibition at 10 µM: mean ± SD, read-out: % inh. at 10 µM ROCK-1; for IC50: mean ± SEM, ATP 5 µM.
Text: as §1
Promega’s Kinase Enzyme Systems (Promega; Madison, WI, USA) were used to determine the activities of the tested compounds against the human recombinant kinases GSK-3β, IKK- β, and ROCK-1. The assays were performed according to the provided manufacturer’s instruction, based on the optimized conditions of the enzymatic reactions, using the low-volume, white polystyrene, 384-well plates. The ADP-Glo™ Assay (Promega; Madison, WI, USA) was used for bioluminescent detection of the kinase activity. Stock solutions of the tested compounds in DMSO (1mM) were diluted with the Kinase Assay Buffer before use (40 mM Tris, pH 7.5, enriched with 50 µM dithiothreitol; DTT), giving the final desired concentrations. The kinase enzymes, substrates, and ATP solutions were also diluted with the assay buffer prior to use. The GSK-3β, IKK-β, and ROCK-1 substrates were derived from human muscle glycogen synthase 1, human IkBA, and human 40S ribosomal protein S6, respectively. […] The DMSO solution (1% in well) was used in the blank samples instead of the tested inhibitors. After the incubation period, ATP (25 µM per well in the case of GSK-3β and IKK-β kinases; 5 µM per well in the case of ROCK-1 kinase) and an appropriate enzyme substrate (0.2 µg/µL in well) were added to start the enzymatic reaction. The reaction mixture was kept at room temperature for 1 h; then, the ADP-Glo™ reagent was added, to terminate the kinase reaction and deplete any remaining ATP. After 40 min, a second reagent (Kinase Detection Reagent) was applied to convert the obtained ADP to ATP and to generate light from the newly synthesized ATP using a luciferase/luciferin reaction. The mixture was incubated for another 30 min at room temperature before the luminescence was measured. The calculations of the percent of kinases’ inhibition by tested compounds were based on the equation 100 − (S/B) × 100; S and B are the enzyme activities with and without the tested sample, respectively. […]. IC50 results were obtained using nonlinear regression (GraphPad Prism 9; GraphPad Software, San Diego, CA, USA) by plotting the residual enzyme activities against the applied inhibitor concentration. Each compound was evaluated in two independent experiments, with every data point collected in duplicate.

GSK-3β, sequence (P49841 whole entry): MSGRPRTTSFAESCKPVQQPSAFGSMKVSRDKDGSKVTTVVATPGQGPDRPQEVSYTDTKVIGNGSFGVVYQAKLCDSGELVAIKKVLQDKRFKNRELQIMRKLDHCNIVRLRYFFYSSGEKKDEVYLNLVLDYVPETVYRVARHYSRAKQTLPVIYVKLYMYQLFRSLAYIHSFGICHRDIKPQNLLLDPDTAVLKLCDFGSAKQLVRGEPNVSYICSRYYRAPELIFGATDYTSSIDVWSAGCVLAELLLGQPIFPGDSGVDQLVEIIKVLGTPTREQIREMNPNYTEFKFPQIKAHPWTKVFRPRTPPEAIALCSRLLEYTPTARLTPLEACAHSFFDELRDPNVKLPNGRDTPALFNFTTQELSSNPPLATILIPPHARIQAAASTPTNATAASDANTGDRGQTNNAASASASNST
T2 sequence (Q13464 whole entry): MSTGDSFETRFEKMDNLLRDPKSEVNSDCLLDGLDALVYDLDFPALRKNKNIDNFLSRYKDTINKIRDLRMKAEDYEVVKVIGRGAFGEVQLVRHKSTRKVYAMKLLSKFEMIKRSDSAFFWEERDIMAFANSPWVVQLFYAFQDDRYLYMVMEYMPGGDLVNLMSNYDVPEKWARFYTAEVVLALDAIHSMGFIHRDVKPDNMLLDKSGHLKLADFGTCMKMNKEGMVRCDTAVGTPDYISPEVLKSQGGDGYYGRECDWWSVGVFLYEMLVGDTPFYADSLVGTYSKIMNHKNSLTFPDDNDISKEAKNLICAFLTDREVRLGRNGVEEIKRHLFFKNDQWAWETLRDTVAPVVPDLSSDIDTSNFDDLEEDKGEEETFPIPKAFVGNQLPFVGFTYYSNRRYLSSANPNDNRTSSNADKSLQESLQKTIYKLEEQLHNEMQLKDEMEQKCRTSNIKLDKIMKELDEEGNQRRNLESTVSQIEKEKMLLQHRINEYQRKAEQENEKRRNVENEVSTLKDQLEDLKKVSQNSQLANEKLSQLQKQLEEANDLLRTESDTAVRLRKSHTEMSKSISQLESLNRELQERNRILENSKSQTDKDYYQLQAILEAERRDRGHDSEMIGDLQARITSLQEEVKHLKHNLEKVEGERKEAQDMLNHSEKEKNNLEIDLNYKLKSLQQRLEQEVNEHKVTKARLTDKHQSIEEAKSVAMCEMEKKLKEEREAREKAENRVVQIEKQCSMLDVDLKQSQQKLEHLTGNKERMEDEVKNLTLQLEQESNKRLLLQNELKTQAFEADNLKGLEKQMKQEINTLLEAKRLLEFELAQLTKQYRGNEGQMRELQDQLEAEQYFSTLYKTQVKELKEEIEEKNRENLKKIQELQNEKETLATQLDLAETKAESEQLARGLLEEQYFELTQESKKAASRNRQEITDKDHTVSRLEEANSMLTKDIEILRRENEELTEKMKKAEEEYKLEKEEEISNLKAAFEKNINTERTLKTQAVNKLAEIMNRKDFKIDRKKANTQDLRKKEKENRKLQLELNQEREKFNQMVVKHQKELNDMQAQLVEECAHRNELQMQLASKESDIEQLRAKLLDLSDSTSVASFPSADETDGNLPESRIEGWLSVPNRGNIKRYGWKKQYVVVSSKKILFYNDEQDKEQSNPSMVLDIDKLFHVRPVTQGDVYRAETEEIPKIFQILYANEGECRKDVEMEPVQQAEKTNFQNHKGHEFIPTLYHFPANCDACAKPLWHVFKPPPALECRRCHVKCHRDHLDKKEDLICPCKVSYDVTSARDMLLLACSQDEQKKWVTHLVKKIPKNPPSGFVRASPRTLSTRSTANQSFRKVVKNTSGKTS

Turning to `CC(=O)Nc1cc(-c2cc3c(s2)C(=O)NC(C)(C)N3)ccn1` [Compound 38, N-(4-(2,2-Dimethyl-4-oxo-1,2,3,4-tetrahydrothieno [3,2-d]pyrimidin-6-yl)pyridin-2-yl)acetamide], the IC50 against GSK-3β amounted to 1.13 ± 0.043 µM; at IKK-β, 6.52 ± 0.281 µM. Also, the inhibition at 10 µM on ROCK-1 was 50%.

Consider `CC1(C)NC(=O)c2sc(-c3ccnc(NC(=O)C4CCCCC4)c3)cc2N1` [Compound 42, N-(4-(2,2-Dimethyl-4-oxo-1,2,3,4-tetrahydrothieno [3,2-d]pyrimidin-6-yl)pyridin-2-yl)-cyclohexanecarboxamide], for which it took 0.83 ± 0.03 µM to reach half-maximal inhibition on GSK-3β (IC50). Besides, the inhibition at 10 µM was 18% at IKK-β and 30% at ROCK-1.

Regarding `CC1(C)NC(=O)c2sc(-c3ccnc(NC(=O)c4ccccc4)c3)cc2N1` [Compound 43, N-(4-(2,2-Dimethyl-4-oxo-1,2,3,4-tetrahydrothieno [3,2-d]pyrimidin-6-yl)pyridin-2-yl)benzamide], the IC50 on GSK-3β is 1.31 ± 0.042 µM; at ROCK-1, 3.74 ± 0.217 µM. The inhibition at 10 µM at IKK-β came out at 38%.

Turning to `CC1(C)NC(=O)c2sc(-c3ccnc(NS(C)(=O)=O)c3)cc2N1` [Compound 44, N-(4-(2,2-Dimethyl-4-oxo-1,2,3,4-tetrahydrothieno [3,2-d]pyrimidin-6-yl)pyridin-2-yl)-methanesulfonamide], the inhibition at 10 µM is 32% at GSK-3β, below 10% at IKK-β and below 10% on ROCK-1.

Take `CCS(=O)(=O)Nc1cc(-c2cc3c(s2)C(=O)NC(C)(C)N3)ccn1` [Compound 45, N-(4-(2,2-Dimethyl-4-oxo-1,2,3,4-tetrahydrothieno [3,2-d]pyrimidin-6-yl)pyridin-2-yl)-ethanesulfonamide]: the inhibition at 10 µM at GSK-3β is 40%; at IKK-β, below 10%; at ROCK-1, below 10%.

As to `CC1(C)NC(=O)c2sc(-c3ccnc(NCC4CC4)c3)cc2N1` [Compound 46, 6-(2-((Cyclopropylmethyl)amino)pyridin-4-yl)-2,2-dimethyl-2,3-dihydrothieno [3,2-d]pyrimidin-4(1H)-one], the inhibition at 10 µM on GSK-3β came to 39%; on IKK-β, 41%. The molecule further came in with an IC50 against ROCK-1 of 1.73 ± 0.078 µM.

As for `CC(=O)Nc1cc(-c2cc(NC(N)=O)c(C(N)=O)s2)ccn1` [Compound 47, 5-(2-Acetamidopyridin-4-yl)-3-ureidothiophene-2-carboxamide], the inhibition at 10 µM amounted to 34% at GSK-3β and 17% on IKK-β.

With `NC(=O)Nc1cc(-c2ccnc(NC(=O)C3CCCCC3)c2)sc1C(N)=O` [Compound 51, 5-(2-(Cyclohexanecarboxamido)pyridin-4-yl)-3-ureidothiophene-2-carboxamide], the IC50 against GSK-3β is 0.614 ± 0.026 µM. Further, on IKK-β, the inhibition at 10 µM was below 10%.

`NC(=O)Nc1cc(-c2ccnc(NC(=O)c3ccccc3)c2)sc1C(N)=O` [Compound 52, 5-(2-Benzamidopyridin-4-yl)-3-ureidothiophene-2-carboxamide] showed an IC50 on GSK-3β of 0.398 ± 0.012 µM. For the same molecule, the inhibition at 10 µM stood at 30% on IKK-β and 15% on ROCK-1.

`CC1(C)NC(=O)c2sc(-c3cccc(NC(=O)C4CC4)c3)cc2N1` [Compound 53, N-(3-(2,2-Dimethyl-4-oxo-1,2,3,4-tetrahydrothieno [3,2-d]pyrimidin-6-yl)phenyl)cyclopropanecarboxamide]: the inhibition at 10 µM is 47% at GSK-3β, below 10% at IKK-β and below 10% at ROCK-1.

At GSK-3β, `CC1(C)NC(=O)c2sc(-c3ccc(F)c(NC(=O)C4CC4)c3)cc2N1` [Compound 54, N-(5-(2,2-Dimethyl-4-oxo-1,2,3,4-tetrahydrothieno [3,2-d]pyrimidin-6-yl)-2-fluorophenyl)-cyclopropanecarboxamide] showed an IC50 of 0.453 ± 0.013 µM. Also, on IKK-β, the inhibition at 10 µM was 10%.

Take `CCS(=O)(=O)Nc1cccc(-c2cc3c(s2)C(=O)NC(C)(C)N3)c1` [Compound 55, N-(3-(2,2-Dimethyl-4-oxo-1,2,3,4-tetrahydrothieno [3,2-d]pyrimidin-6-yl)phenyl)ethanesulfonamide]: the inhibition at 10 µM is 11% at GSK-3β, 16% on IKK-β and below 10% at ROCK-1.

As for `CC1(C)NC(=O)c2sc(-c3cccc(NS(=O)(=O)C4CCCCC4)c3)cc2N1` [Compound 56, N-(3-(2,2-Dimethyl-4-oxo-1,2,3,4-tetrahydrothieno [3,2-d]pyrimidin-6-yl)phenyl)cyclohexanesulfonamide], the results for the inhibition at 10 µM on GSK-3β, on IKK-β and at ROCK-1 were below 10%, below 10% and 33%, respectively.

As to `CC1(C)NC(=O)c2sc(-c3cccc(S(=O)(=O)N4CCCCC4)c3)cc2N1` [Compound 57, 2,2-Dimethyl-6-(3-(piperidin-1-ylsulfonyl)phenyl)-2,3-dihydrothieno [3,2-d]pyrimidin-4(1H)-one], the inhibition at 10 µM on GSK-3β was below 10%; at IKK-β it was 17%; at ROCK-1, below 10%.

For `NC(=O)Nc1cc(-c2ccc(F)c(NC(=O)C3CC3)c2)sc1C(N)=O` [Compound 59, 5-(3-(Cyclopropanecarboxamido)-4-fluorophenyl)-3-ureidothiophene-2-carboxamide], the figures for the IC50 against GSK-3β and at IKK-β were 1.85 ± 0.038 µM and 7.62 ± 0.695 µM, respectively. The inhibition at 10 µM at ROCK-1 is below 10%.

The IC50 is the point on the concentration scale where inhibition reaches its midpoint.

The values above are taken from article PMC11173485, “Connecting GSK-3β Inhibitory Activity with IKK-β or ROCK-1 Inhibition to Target Tau Aggregation and Neuroinflammation in Alzheimer’s Disease—Discovery, In Vitro and In Cellulo Activity of Thiazole-Based Inhibitors” (Molecules, 2024).
